Test results reported in patent publication US20090220614A1, “Thermo-Responsive Block Co-Polymers, and Use Thereof” (The Trustees of the University of Pennsylvania, priority 2005, published 2009).

Assay: Release of doxorubicin from OPA215 vesicles, dialysis cassette in PBS, 485 nm absorption
Type: physicochemical
Details: 37° C., within 2 hours
Description: The Dox-loaded vesicles were centrifuged at 40° C. to remove excess free Dox and resuspended into a 0.320 osM PBS solution at ° C. Then, 3 ml of the aforementioned solution was injected into a dialysis cassette (molecular weight cut-off 3000 g mol^−1), and dialyzed against the PBS solution at 37° C. for 6 hours to ensure complete removal of any free Dox outside of the vesicles. After the initial aliquot was taken, the cassette was immersed in a 300 ml PBS solution at 37° and 27° C., respectively, for monitoring the 485 nm absorption peak of Dox using UV-vis spectrometry. At time intervals, a 3 ml aliquot of the PBS solution was sampled from the external solution of the dialysis cassette.
To study thermally triggered release of Dox from the OPA215 vesicles in PBS solutions, vesicles and control samples were entrapped in dialysis cassettes and sampled in external PBS solutions for the 485 nm absorption peak of Dox at different time intervals (FIG. 9).

For `COc1cccc2c1C(=O)c1c(O)c3c(c(O)c1C2=O)C[C@@](O)(C(=O)CO)C[C@@H]3O[C@H]1C[C@H](N)[C@H](O)[C@H](C)O1` [free Dox, Doxorubicin], the “loss of Dox during dialysis” value was greater than 70%.
